We go through 22 compounds from PubChem BioAssay AID248 (DTP/NCI, 2004).

“And” between values parts separate entries of the source, which are not always exact repeats. Identical values can stand only once. Toxic doses and inconclusive results are not listed.

The assay deals with L1210 leukemia ip in BDF1 mice, survival T/C. In words: NCI In Vivo Anticancer Drug Screen. Data for tumor model L1210 Leukemia (intraperitoneal) in B6D2F1 (BDF1) mice. The note with it: endpoint: mean survival time, higher = longer survival. In short, it runs like this:
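Tumor cells were implanted, animals were treated, and survival was followed. The result divides the treated measurement by the vehicle-control measurement.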

Setting [1] is: dose: 50.0 mg/kg/injection, schedule: Q01DX009 (ip), vehicle: saline with Tween-80.
Setting [2] is: dose: 100.0 mg/kg/injection, schedule: Q01DX009 (ip), vehicle: saline with Tween-80.
The mark [3] stands for this setting: dose: 200.0 mg/kg/injection, schedule: Q01DX009 (ip), vehicle: saline with Tween-80.
Where [4] appears, read: dose: 100.0 mg/kg/injection, schedule: Q04DX003 (ip), vehicle: saline with Tween-80.
[5] abbreviates: dose: 200.0 mg/kg/injection, schedule: Q04DX003 (ip), vehicle: saline with Tween-80.
[6] abbreviates: dose: 400.0 mg/kg/injection, schedule: Q04DX003 (ip), vehicle: saline with Tween-80.
The mark [7] stands for this setting: dose: 100.0 mg/kg/injection, schedule: Q04DX002 (ip), vehicle: Klucel (hydroxypropylcellulose) (HPC).
[8] abbreviates: dose: 200.0 mg/kg/injection, schedule: Q04DX002 (ip), vehicle: Klucel (hydroxypropylcellulose) (HPC).
Where [9] appears, read: dose: 100.0 mg/kg/injection, schedule: Q01DX009 (ip), vehicle: Klucel (hydroxypropylcellulose) (HPC).
The mark [10] stands for this setting: dose: 50.0 mg/kg/injection, schedule: Q01DX001 (ip), vehicle: saline.
The mark [11] stands for this setting: dose: 100.0 mg/kg/injection, schedule: Q01DX001 (ip), vehicle: saline.
[12] abbreviates: dose: 200.0 mg/kg/injection, schedule: Q01DX001 (ip), vehicle: saline.
Where [13] appears, read: dose: 400.0 mg/kg/injection, schedule: Q01DX001 (ip), vehicle: saline.

Regarding `COC(=O)c1ccc(OC(=O)Nc2ccc(C)c(NC(=O)Oc3ccc(C(=O)OC)cc3)c2)cc1`, the T/C was 96 % of control under setting [1], 96 % of control under setting [2] and 101 % of control under setting [3].

With `C[CH2][Sn]([CH2]C)([CH2]C)[NH]S(=O)(=O)c1ccc(C)cc1`, the T/C (dose: 3.12 mg/kg/injection, schedule: Q01DX009 (ip), vehicle: saline with Tween-80) was 92 % of control and the T/C (dose: 12.5 mg/kg/injection, schedule: Q04DX003 (ip), vehicle: saline) was 106 % of control.

On to `Cc1ccc(OCC(O)CN2CCN(c3ccc(Cl)cc3)CC2)cc1` (configuration not stated), for which the T/C reads like this: (dose: 63.0 mg/kg/injection, schedule: Q01DX015 (ip), vehicle: carboxymethylcellulose (CMC)) 95 % of control; under setting [4], 91 % of control; (dose: 125.0 mg/kg/injection, schedule: Q01DX015 (ip), vehicle: carboxymethylcellulose (CMC)) 95 % of control; under setting [5], 94 % of control; (dose: 250.0 mg/kg/injection, schedule: Q01DX015 (ip), vehicle: carboxymethylcellulose (CMC)) 95 % of control; under setting [6], 89 % of control. Moreover, the T/C is, setting by setting: (dose: 500.0 mg/kg/injection, schedule: Q01DX015 (ip), vehicle: carboxymethylcellulose (CMC)) 91 % of control; (dose: 1000.0 mg/kg/injection, schedule: Q01DX015 (ip), vehicle: carboxymethylcellulose (CMC)) 95 % of control.

With `CNC(=O)N(C)C1C(OC)OC2COC(c3ccccc3)OC2C1O` (configuration not stated), the T/C is, setting by setting: (dose: 25.0 mg/kg/injection, schedule: Q01DX009 (ip), vehicle: saline) 100 % of control; (dose: 50.0 mg/kg/injection, schedule: Q01DX009 (ip), vehicle: saline) 105 % of control; (dose: 100.0 mg/kg/injection, schedule: Q01DX009 (ip), vehicle: saline) 100 % of control; (dose: 200.0 mg/kg/injection, schedule: Q01DX009 (ip), vehicle: saline) 100 % of control.

Regarding `C1=CC2CC1CC2/C=N\N=C\C1CC2C=CC1C2` (configuration not stated), the T/C runs as follows: under setting [7], 118 % of control; under setting [8], 121 % of control.

Turning to `CC[n+]1ccc(Cc2ccc([N+](=O)[O-])cc2)cc1`, the T/C reads like this: (dose: 25.0 mg/kg/injection, schedule: Q01DX009 (ip), vehicle: Klucel (hydroxypropylcellulose) (HPC)) 102 % of control; (dose: 50.0 mg/kg/injection, schedule: Q01DX009 (ip), vehicle: Klucel (hydroxypropylcellulose) (HPC)) 95 % of control; under setting [9], 100 % of control.

`CC1(C)CCOc2ccccc21`: the T/C is 88 % of control under setting [1] and 94 % of control under setting [2].

Consider `O=[N+]([O-])c1ccc2ncsc2c1`, for which the T/C was 98 % of control under setting [2]; 112 % of control under setting [4]; 98 % of control under setting [3]; 102 % of control under setting [5]; 98 % of control (dose: 400.0 mg/kg/injection, schedule: Q01DX009 (ip), vehicle: saline with Tween-80); 104 % of control under setting [6].

For `COC(=O)C1=C2c3ccccc3NC(=O)N2NC1C(=O)OC` (configuration not stated), the T/C is, setting by setting: (dose: 50.0 mg/kg/injection, schedule: Q04DX002 (ip), vehicle: saline) 108 % of control; (dose: 100.0 mg/kg/injection, schedule: Q04DX002 (ip), vehicle: saline) 90 % of control; (dose: 200.0 mg/kg/injection, schedule: Q04DX002 (ip), vehicle: saline) 90 % of control.

As to `Cc1[nH]c2ccccc2c(=O)c1-c1ccccc1`, the T/C runs as follows: under setting [10], 98 % of control; under setting [11], 98 % of control; under setting [12], 102 % of control; under setting [13], 96 % of control.

With `CCCCCCCCCCCCCCCCSC(=N)N`, the T/C is, setting by setting: (dose: 100.0 mg/kg/injection, schedule: Q04DX003 (ip), vehicle: carboxymethylcellulose (CMC)) 91 % of control; (dose: 200.0 mg/kg/injection, schedule: Q04DX003 (ip), vehicle: carboxymethylcellulose (CMC)) 93 % of control.

Consider `Fc1ccc([P+]2(c3ccc(F)cc3)C=C(c3ccccc3)[P+](c3ccc(F)cc3)(c3ccc(F)cc3)C=C2c2ccccc2)cc1`, for which the T/C (dose: 12.5 mg/kg/injection, schedule: Q01DX001 (ip), vehicle: saline with Tween-80) was 100 % of control; the T/C (dose: 25.0 mg/kg/injection, schedule: Q01DX001 (ip), vehicle: saline with Tween-80) was 98 % of control; the T/C (dose: 50.0 mg/kg/injection, schedule: Q01DX001 (ip), vehicle: saline with Tween-80) is 100 % of control.

On to `Cc1cc(N(CCOS(C)(=O)=O)CCOS(C)(=O)=O)ccc1C=Nc1cc(Br)c(O)c(Br)c1`, for which the T/C (dose: 25.0 mg/kg/injection, schedule: Q04DX003 (ip), vehicle: Klucel (hydroxypropylcellulose) (HPC)) was 107 % of control and 111 % of control; the T/C (dose: 50.0 mg/kg/injection, schedule: Q04DX003 (ip), vehicle: Klucel (hydroxypropylcellulose) (HPC)) is 109 % of control; the T/C (dose: 75.0 mg/kg/injection, schedule: Q04DX003 (ip), vehicle: Klucel (hydroxypropylcellulose) (HPC)) is 175 % of control.

Take `C1COC(CNCC2CCCO2)C1` (configuration not stated): the T/C is 109 % of control under setting [10], 101 % of control under setting [11] and 103 % of control under setting [12].

`O=C1CCC(N2C(=O)C3CCCCC3C2=O)C(=O)N1` (configuration not stated): the T/C (dose: 100.0 mg/kg/injection, schedule: Q04DX003 (ip), vehicle: saline) is 97 % of control; the T/C (dose: 200.0 mg/kg/injection, schedule: Q04DX003 (ip), vehicle: saline) was 93 % of control; the T/C (dose: 400.0 mg/kg/injection, schedule: Q04DX003 (ip), vehicle: saline) was 101 % of control.

Consider `CCOC(=O)CCCNc1ccccc1C(=O)OC`, for which the T/C by setting is: (dose: 100.0 mg/kg/injection, schedule: Q01DX001 (ip), vehicle: carboxymethylcellulose (CMC)) 110 % of control; (dose: 200.0 mg/kg/injection, schedule: Q01DX001 (ip), vehicle: carboxymethylcellulose (CMC)) 107 % of control; (dose: 400.0 mg/kg/injection, schedule: Q01DX001 (ip), vehicle: carboxymethylcellulose (CMC)) 107 % of control.

As to `O=C(CCN1CC1)Nc1ccc(NC(=O)CCN2CC2)cc1`, the T/C (dose: 2.0 mg/kg/injection, schedule: Q01DX009 (ip), vehicle: Klucel (hydroxypropylcellulose) (HPC)) was 121 % of control; the T/C (dose: 3.0 mg/kg/injection, schedule: Q01DX009 (ip), vehicle: Klucel (hydroxypropylcellulose) (HPC)) was 156 % of control; the T/C (dose: 6.6 mg/kg/injection, schedule: Q01DX009 (ip), vehicle: Klucel (hydroxypropylcellulose) (HPC)) is 184 % of control; the T/C (dose: 10.0 mg/kg/injection, schedule: Q04DX003 (ip), vehicle: Klucel (hydroxypropylcellulose) (HPC)) was 115 % of control; the T/C (dose: 20.0 mg/kg/injection, schedule: Q01DX009 (ip), vehicle: Klucel (hydroxypropylcellulose) (HPC)) was 97 % of control; the T/C (dose: 40.0 mg/kg/injection, schedule: Q04DX003 (ip), vehicle: Klucel (hydroxypropylcellulose) (HPC)) was 171 % of control and 181 % of control.

As to `CCOP(=O)(NC12CC3CC(CC(C3)C1)C2)OCC`, the T/C is 97 % of control under setting [9]; 93 % of control (dose: 100.0 mg/kg/injection, schedule: Q04DX003 (ip), vehicle: Klucel (hydroxypropylcellulose) (HPC)); 94 % of control (dose: 200.0 mg/kg/injection, schedule: Q01DX009 (ip), vehicle: Klucel (hydroxypropylcellulose) (HPC)); 98 % of control (dose: 200.0 mg/kg/injection, schedule: Q04DX003 (ip), vehicle: Klucel (hydroxypropylcellulose) (HPC)); 90 % of control (dose: 400.0 mg/kg/injection, schedule: Q04DX003 (ip), vehicle: Klucel (hydroxypropylcellulose) (HPC)).

For the compound `COc1cc(/C=N\Nc2ccccc2[N+](=O)[O-])cc(OC)c1OC`, the T/C by setting is: under setting [4], 86 % of control; under setting [5], 91 % of control; under setting [6], 89 % of control.

On to `COc1ccc(/C=C2\C=Nc3ccccc32)cc1`, for which the T/C runs as follows: under setting [7], 94 % of control; under setting [8], 97 % of control; (dose: 400.0 mg/kg/injection, schedule: Q04DX002 (ip), vehicle: Klucel (hydroxypropylcellulose) (HPC)) 108 % of control.

In the case of `CCCNC(=O)Oc1ccccc1-c1ccccc1`, the T/C was 92 % of control (dose: 100.0 mg/kg/injection, schedule: Q04DX002 (ip), vehicle: saline with Tween-80); 103 % of control (dose: 200.0 mg/kg/injection, schedule: Q04DX002 (ip), vehicle: saline with Tween-80); 110 % of control (dose: 400.0 mg/kg/injection, schedule: Q04DX002 (ip), vehicle: saline with Tween-80).

In the case of `O=C1c2cccc3cc([N+](=O)[O-])cc(c23)C(=O)N1O`, the T/C by setting is: under setting [11], 101 % of control; under setting [12], 97 % of control; under setting [13], 107 % of control.
